The values below come from PMC4979471 (Cell Death Discovery, 2015).

What all share (test): Kinase selectivity, P33-radiolabeled assay
Format in all cases: biochemical
Holding throughout (conditions): 10 μM ATP

In one assay the target is T1, CDK5/p35 (Homo sapiens, UniProt Q00535).
T1 construct: purchased Reaction Biology Corp
A digest of the protocol: (§1)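 Activity relative to DMSO controls (%) was measured for compound at 10 μM. Assays ran at 10 μM ATP, in duplicate.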

In another assay the target is T2, DDR1 (Homo sapiens, UniProt Q08345).
T2 construct: purchased Reaction Biology Corp
T2 sequence (Q08345 19-913): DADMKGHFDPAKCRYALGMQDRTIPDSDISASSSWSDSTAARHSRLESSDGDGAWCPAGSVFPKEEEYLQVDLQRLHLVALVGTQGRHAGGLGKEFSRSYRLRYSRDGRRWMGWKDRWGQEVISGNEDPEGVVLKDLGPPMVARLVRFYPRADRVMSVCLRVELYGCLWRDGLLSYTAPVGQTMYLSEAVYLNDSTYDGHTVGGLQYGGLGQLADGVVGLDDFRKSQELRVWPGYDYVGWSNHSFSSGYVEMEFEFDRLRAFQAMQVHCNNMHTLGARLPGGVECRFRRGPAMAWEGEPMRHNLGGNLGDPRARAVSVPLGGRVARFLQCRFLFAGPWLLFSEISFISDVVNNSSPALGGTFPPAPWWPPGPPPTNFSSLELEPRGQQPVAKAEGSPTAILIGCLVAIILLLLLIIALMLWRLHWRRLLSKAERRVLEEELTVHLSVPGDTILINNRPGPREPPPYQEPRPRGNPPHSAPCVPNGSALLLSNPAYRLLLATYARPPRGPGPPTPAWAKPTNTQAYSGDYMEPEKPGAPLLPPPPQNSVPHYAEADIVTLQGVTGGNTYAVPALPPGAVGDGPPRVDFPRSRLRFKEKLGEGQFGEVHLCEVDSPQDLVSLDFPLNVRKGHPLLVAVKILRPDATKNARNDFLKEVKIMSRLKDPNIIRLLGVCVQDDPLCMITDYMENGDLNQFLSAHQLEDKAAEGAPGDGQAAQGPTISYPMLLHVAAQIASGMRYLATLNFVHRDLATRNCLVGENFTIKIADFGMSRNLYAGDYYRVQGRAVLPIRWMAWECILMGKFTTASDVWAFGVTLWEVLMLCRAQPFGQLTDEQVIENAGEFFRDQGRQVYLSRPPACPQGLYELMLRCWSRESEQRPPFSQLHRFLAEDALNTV
A digest of the protocol:
as §1

A further assay has as its target T3, EPHA6 (Homo sapiens, UniProt Q9UF33).
T3 construct: purchased Reaction Biology Corp
T3 sequence (Q9UF33 23-1036): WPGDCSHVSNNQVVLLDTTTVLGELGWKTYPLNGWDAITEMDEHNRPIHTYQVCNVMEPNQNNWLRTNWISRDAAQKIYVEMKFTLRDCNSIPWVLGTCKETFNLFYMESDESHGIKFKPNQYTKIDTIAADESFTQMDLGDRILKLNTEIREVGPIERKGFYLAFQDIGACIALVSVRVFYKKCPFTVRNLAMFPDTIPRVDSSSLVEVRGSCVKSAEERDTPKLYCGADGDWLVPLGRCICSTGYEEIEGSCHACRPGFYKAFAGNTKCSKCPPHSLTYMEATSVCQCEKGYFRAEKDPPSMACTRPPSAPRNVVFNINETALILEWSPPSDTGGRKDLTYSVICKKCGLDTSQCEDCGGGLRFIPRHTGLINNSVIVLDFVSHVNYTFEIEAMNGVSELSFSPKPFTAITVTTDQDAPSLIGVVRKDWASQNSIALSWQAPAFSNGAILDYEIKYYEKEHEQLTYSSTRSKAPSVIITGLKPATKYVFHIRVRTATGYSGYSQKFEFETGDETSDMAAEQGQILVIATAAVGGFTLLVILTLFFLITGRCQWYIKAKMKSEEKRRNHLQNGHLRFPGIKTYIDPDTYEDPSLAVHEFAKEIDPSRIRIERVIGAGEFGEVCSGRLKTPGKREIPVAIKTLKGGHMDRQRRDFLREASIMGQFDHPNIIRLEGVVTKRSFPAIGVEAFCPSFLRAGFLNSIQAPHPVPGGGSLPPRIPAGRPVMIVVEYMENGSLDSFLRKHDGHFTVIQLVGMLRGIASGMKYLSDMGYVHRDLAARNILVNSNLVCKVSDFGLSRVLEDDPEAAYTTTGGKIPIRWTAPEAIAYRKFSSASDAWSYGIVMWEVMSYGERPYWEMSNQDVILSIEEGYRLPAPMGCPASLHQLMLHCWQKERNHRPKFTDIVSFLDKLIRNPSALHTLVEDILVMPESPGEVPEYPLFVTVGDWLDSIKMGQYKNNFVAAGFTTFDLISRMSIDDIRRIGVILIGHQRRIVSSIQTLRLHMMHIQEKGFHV
A digest of the protocol: as §1

The target in a further assay is T4, EPHB2 (Homo sapiens, UniProt P29323).
T4 construct: purchased Reaction Biology Corp
T4 sequence (P29323 19-1055): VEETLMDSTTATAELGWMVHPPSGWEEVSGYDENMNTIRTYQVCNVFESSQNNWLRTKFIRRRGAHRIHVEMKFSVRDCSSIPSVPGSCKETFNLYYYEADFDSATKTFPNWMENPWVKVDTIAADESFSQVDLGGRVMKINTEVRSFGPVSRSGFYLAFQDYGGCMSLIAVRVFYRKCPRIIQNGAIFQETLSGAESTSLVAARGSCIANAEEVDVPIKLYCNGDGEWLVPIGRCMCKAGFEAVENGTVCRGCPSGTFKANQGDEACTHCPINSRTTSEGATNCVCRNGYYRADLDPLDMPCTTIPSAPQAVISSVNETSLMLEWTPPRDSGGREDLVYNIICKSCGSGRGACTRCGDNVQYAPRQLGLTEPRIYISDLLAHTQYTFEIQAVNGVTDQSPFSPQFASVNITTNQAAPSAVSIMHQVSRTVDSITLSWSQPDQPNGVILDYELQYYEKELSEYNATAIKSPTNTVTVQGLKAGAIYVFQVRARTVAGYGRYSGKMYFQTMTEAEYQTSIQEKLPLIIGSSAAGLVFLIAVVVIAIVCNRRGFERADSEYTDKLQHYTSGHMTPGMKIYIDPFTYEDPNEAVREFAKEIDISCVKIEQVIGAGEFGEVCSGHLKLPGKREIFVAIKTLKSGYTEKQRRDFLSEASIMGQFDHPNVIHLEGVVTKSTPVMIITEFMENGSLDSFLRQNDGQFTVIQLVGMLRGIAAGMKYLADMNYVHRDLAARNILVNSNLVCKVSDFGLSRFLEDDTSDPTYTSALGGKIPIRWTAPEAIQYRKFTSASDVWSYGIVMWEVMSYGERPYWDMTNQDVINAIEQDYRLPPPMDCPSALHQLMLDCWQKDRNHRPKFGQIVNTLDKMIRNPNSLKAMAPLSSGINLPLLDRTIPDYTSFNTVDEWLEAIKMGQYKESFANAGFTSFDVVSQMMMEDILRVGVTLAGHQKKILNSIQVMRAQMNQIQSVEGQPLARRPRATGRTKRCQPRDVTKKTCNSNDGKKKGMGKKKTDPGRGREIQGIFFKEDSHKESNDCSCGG
A digest of the protocol:
as §1

Another assay concerns the target T5, JAK2 (Homo sapiens, UniProt O60674).
T5 construct: purchased Reaction Biology Corp
The procedure, abridged: as §1

The target of another assay is T6, PDGFRb (Homo sapiens, UniProt P09619).
T6 construct: purchased Reaction Biology Corp
T6 sequence (P09619 33-1106): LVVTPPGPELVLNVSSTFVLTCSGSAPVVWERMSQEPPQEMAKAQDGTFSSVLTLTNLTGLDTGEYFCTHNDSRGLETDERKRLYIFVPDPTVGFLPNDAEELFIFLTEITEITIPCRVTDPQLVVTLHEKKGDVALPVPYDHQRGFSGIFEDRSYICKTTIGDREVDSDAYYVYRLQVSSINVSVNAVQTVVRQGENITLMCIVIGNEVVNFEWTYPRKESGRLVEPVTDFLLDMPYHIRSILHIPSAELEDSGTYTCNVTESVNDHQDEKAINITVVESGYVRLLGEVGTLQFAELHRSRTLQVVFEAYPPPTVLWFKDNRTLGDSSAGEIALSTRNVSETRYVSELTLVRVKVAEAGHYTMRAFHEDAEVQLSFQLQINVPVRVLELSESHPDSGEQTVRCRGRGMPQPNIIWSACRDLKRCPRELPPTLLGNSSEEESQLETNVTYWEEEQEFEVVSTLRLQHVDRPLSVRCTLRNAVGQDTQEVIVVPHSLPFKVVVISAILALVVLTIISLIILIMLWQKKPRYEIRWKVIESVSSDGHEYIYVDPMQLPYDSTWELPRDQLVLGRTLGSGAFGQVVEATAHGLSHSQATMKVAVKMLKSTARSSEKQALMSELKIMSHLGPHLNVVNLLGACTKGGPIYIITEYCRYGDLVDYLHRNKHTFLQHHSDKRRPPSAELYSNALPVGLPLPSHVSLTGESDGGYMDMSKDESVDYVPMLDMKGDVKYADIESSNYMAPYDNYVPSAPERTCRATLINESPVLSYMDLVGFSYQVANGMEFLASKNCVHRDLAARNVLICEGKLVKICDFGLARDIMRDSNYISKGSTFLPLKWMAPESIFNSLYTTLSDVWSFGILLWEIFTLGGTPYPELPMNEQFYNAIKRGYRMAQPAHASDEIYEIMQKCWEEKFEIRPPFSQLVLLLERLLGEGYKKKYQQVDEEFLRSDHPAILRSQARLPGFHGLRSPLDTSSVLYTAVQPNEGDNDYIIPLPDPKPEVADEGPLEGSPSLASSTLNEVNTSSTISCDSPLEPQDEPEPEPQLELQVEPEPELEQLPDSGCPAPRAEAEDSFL
The procedure, abridged:
as §1

The target of a further assay is T7, STK16 (Homo sapiens, UniProt O75716).
T7 construct: purchased Reaction Biology Corp
T7 sequence (O75716 whole entry): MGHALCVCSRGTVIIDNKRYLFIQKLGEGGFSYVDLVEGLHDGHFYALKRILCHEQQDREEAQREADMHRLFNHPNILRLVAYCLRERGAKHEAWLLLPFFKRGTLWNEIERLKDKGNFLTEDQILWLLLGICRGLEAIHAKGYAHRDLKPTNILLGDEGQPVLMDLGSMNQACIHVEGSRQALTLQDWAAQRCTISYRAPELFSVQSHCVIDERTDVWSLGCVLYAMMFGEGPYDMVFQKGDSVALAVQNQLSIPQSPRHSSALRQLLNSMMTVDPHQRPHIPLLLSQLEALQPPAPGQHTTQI
The procedure, abridged: as §1

The mark [1] stands for this setting: read-out: % Enzyme Activity (relative to DMSO controls) AVG.
Where [2] appears, read: read-out: % Enzyme Activity (relative to DMSO controls) Data 1.
[3] abbreviates: read-out: % Enzyme Activity (relative to DMSO controls) Data 2.

Like-named read-outs stand apart in the source and are kept apart here.

T5 sequence (O60674 whole entry): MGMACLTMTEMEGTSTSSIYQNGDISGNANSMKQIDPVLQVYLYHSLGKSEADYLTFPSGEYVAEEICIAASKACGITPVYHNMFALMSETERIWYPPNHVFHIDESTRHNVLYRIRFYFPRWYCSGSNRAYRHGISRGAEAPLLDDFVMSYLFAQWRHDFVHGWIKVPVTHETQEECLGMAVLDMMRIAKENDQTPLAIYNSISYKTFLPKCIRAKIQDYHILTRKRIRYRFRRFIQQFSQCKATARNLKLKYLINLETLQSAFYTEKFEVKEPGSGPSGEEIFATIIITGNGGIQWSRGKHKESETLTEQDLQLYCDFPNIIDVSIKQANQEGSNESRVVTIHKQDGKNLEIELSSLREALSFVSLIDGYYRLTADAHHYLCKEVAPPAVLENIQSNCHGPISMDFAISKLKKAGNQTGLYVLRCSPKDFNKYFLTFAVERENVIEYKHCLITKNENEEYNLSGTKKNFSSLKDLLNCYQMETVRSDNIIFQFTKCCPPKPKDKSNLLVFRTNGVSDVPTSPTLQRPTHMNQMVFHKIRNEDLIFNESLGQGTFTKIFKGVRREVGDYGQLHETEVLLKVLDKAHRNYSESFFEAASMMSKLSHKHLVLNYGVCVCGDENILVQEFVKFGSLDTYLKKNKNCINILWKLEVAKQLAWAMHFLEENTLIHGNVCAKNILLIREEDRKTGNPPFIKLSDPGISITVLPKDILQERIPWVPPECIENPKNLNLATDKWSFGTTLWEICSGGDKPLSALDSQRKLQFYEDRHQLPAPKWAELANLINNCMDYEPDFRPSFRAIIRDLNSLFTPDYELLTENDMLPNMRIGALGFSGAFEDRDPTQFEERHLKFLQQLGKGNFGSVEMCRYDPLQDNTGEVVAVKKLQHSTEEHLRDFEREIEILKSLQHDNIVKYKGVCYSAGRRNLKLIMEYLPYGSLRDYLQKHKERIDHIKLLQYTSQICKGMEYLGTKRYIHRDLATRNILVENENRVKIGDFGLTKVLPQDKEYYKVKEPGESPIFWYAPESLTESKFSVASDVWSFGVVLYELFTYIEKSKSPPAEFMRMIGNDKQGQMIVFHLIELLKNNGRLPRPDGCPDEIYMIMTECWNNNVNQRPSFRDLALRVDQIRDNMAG
T1 sequence (Q00535 whole entry): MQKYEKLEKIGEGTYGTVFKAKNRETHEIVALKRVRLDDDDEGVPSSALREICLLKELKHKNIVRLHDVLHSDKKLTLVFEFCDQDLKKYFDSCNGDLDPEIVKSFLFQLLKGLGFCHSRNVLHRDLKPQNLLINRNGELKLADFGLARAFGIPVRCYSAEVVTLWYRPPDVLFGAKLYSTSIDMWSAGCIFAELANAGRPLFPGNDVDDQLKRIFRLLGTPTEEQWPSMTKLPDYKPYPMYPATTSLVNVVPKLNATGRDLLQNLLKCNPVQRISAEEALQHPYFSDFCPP
T1 sequence (Q15078 whole entry partner): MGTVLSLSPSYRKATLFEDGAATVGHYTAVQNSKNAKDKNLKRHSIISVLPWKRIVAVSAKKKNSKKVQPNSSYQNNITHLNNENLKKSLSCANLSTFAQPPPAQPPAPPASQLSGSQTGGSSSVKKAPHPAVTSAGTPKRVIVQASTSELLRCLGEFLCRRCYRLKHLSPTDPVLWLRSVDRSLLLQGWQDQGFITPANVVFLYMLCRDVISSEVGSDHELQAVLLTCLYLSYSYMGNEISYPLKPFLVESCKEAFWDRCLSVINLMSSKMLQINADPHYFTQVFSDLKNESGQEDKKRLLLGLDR

Turning to `CC(C)(C)C(=O)N1N=CC[C@H]1c1ccccc1` [GSK′963], the remaining activity at 10 µM was 96.2% on CDK5/p35 (setting [1]); 95.5% on CDK5/p35 (setting [2]); 97% on CDK5/p35 (setting [3]); 96% on DDR1 (setting [1]); 94% on DDR1 (setting [2]); 97.9% on DDR1 (setting [3]). In addition, the remaining activity at 10 µM is 99.3% at EPHA6 (setting [1]); 101% at EPHA6 (setting [2]); 97.5% on EPHA6 (setting [3]); 105% at EPHB2 (setting [1]); 108% at EPHB2 (setting [2]); 102% on EPHB2 (setting [3]). Moreover, the remaining activity at 10 µM was 105% at JAK2 (setting [1]); 105% on JAK2 (setting [2]); 105% at JAK2 (setting [3]); 104% on PDGFRb (setting [1]); 101% at PDGFRb (setting [2]); 107% on PDGFRb (setting [3]). The remaining activity at 10 µM at STK16 (setting [1]), at STK16 (setting [2]) and on STK16 (setting [3]) was 101% in each case.
